Tests used:
wheat [1] = experiment: Test C preemergence; format: in vivo, Triticum aestivum; conditions: for Plant response rating, Wheat: Preemergence; for Wheat plant response rating: Test C, preemergence, 125 g ai/ha
Excerpt: (§1) Seeds of plant species selected from barnyardgrass (Echinochloa crusgalli), blackgrass (Alopecurus myosuroides), corn (Zea mays), foxtail, giant (giant foxtail, Setaria faberi), green foxtail (Setaria viridis), goosegrass (Eleusine indica), kochia (Bassia scoparia), oat, wild (wild oat, Avena fatua), pigweed, palmer (palmer amaranth, palmer pigweed, Amaranthus palmeri), Pigweed, Redroot (redroot pigweed, Amaranthus retroflexus), ragweed (common ragweed, Ambrosia artemisiifolia), ryegrass, Italian ([…] ryegrass, Lolium multiflorum), soybean (Glycine max), and wheat (Triticum aestivum) were planted into a blend of loam soil and sand and treated preemergence with a directed soil spray using test chemicals formulated in a non-phytotoxic solvent mixture which included a surfactant. At the same time, plants selected from these crops and weed species and also galium (catchweed bedstraw, Galium aparine) and horseweed (Erigeron canadensis) were planted in pots containing the same blend of loam soil and sand and treated with postemergence applications of test chemicals formulated in the same manner. Plants ranged in height from 2 to 10 cm and were in the one- to two-leaf stage for the postemergence treatment. Treated plants and untreated controls were maintained in a greenhouse for 10 days, after which time all treated plants were compared to untreated controls and visually evaluated for injury. Plant response ratings, summarized in Table C, are based on a 0 to 100 scale where 0 is no effect and 100 is complete control. A dash (-) response means no test result.

kochia [2] = experiment: Test C preemergence; format: in vivo, Bassia scoparia; conditions: for Plant response rating, Kochia: Preemergence; for Kochia plant response rating: Test C, preemergence, 125 g ai/ha
In short: (§2)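 Visual injury ratings on a 0–100 scale (100 = complete control) were made against untreated controls 10 days after treatment in the greenhouse. Compounds, formulated with surfactant in non-phytotoxic solvent, were sprayed on soil preemergence or onto one- to two-leaf plants 2–10 cm tall postemergence.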

soybean [3] = experiment: Test C postemergence; format: in vivo, Glycine max; conditions: 10 days
Excerpt: as §1

soybean [4] = experiment: Test C preemergence; format: in vivo, Glycine max; conditions: for Plant response rating, Soybean: Preemergence; for Soybean plant response rating: Test C, preemergence, 125 g ai/ha
Excerpt: as §1

corn [5] = experiment: Test C postemergence; format: in vivo, Zea mays; conditions: 10 days
Excerpt: as §1

oat, wild [6] = experiment: Test C postemergence; format: in vivo, Avena fatua; conditions: 10 days
Excerpt: as §1

ryegrass, Italian [7] = experiment: Test C preemergence; format: in vivo, Lolium multiflorum; conditions: for Plant response rating, Ryegrass, Italian: Preemergence; for Ryegrass, Italian plant response rating: Test C, preemergence, 125 g ai/ha
In short: as §2

blackgrass [8] = experiment: Test C preemergence; format: in vivo, Alopecurus myosuroides; conditions: for Plant response rating, Blackgrass: Preemergence; for Blackgrass plant response rating: Test C, preemergence, 125 g ai/ha
In short: as §2

galium = experiment: Test C postemergence; format: in vivo, Galium aparine; conditions: 10 days
In short: as §2

pigweed, palmer [9] = experiment: Test C preemergence; format: in vivo, Amaranthus palmeri; conditions: for Plant response rating, Pigweed, Palmer: Preemergence; for Pigweed, Palmer plant response rating: Test C, preemergence, 125 g ai/ha
In short: as §2

barnyardgrass [10] = experiment: Test C preemergence; format: in vivo, Echinochloa crusgalli; conditions: for Barnyardgrass plant response rating: 125 g ai/ha, preemergence; for Plant response rating, Barnyardgrass: Preemergence
In short: as §2

barnyardgrass [11] = experiment: Test C postemergence; format: in vivo, Echinochloa crusgalli; conditions: 10 days
In short: as §2

ragweed [12] = experiment: Test C postemergence; format: in vivo, Ambrosia artemisiifolia; conditions: 10 days
In short: as §2

green foxtail [13] = experiment: Test C postemergence; format: in vivo, Setaria viridis; conditions: 10 days
In short: as §2

green foxtail [14] = experiment: Test C preemergence; format: in vivo, Setaria viridis; conditions: for Plant response rating, Foxtail, Green: Preemergence; for Foxtail, Green plant response rating: Test C, preemergence, 125 g ai/ha
In short: as §2

ragweed [15] = experiment: Test C preemergence; format: in vivo, Ambrosia artemisiifolia; conditions: for Plant response rating, Ragweed: Preemergence; for Ragweed plant response rating: Test C, preemergence, 125 g ai/ha
In short: as §2

corn [16] = experiment: Test C preemergence; format: in vivo, Zea mays; conditions: for Plant response rating, Corn: Preemergence; for Corn plant response rating: Test C, preemergence, 125 g ai/ha
Excerpt: as §1

kochia [17] = experiment: Test C postemergence; format: in vivo, Bassia scoparia; conditions: 10 days
In short: as §2

wheat [18] = experiment: Test C postemergence; format: in vivo, Triticum aestivum; conditions: 10 days
Excerpt: as §1

blackgrass [19] = experiment: Test C postemergence; format: in vivo, Alopecurus myosuroides; conditions: 10 days
In short: as §2

pigweed, palmer [20] = experiment: Test C postemergence; format: in vivo, Amaranthus palmeri; conditions: 10 days
In short: as §2

horseweed = experiment: Test C postemergence; format: in vivo, Erigeron canadensis; conditions: 10 days
In short: as §2

ryegrass, Italian [21] = experiment: Test C postemergence; format: in vivo, Lolium multiflorum; conditions: 10 days
In short: as §2

oat, wild [22] = experiment: Test C preemergence; format: in vivo, Avena fatua
Excerpt: as §1

[23] = 500 g ai/ha, visual rating after 10 days, 0 to 100 scale (0 no effect, 100 complete control)
[24] = 0 to 100 scale (0 no effect, 100 complete control)
[25] = 125 g ai/ha, postemergence, 0 to 100 scale, 0 no effect, 100 complete control
[26] = Postemergence, 500 g ai/ha, visual 0 to 100 scale (0 no effect, 100 complete control)
[27] = 31 g ai/ha, 0 to 100 scale, 0 no effect, 100 complete control
[28] = Postemergence, 31 g ai/ha, 0 to 100 scale, 0 no effect, 100 complete control

## CCc1ncn(-c2cc(OC)cc(C(=O)N3C[C@H](C)Oc4c(Cl)cccc43)c2)n1 [Compound 164]
Wheat [1]; [23]
  Plant response rating, Wheat: 60
Wheat [1]; [24]
  Wheat plant response rating: 20
Kochia [2]; [23]
  Plant response rating, Kochia: 100
Kochia [2]; [24]
  Kochia plant response rating: 40
Soybean [3]; [25]
  Plant response rating, Soybean: 100
Soybean [3]; [26]
  Plant response rating, Soybean: 100
Soybean [4]; [23]
  Plant response rating, Soybean: 100
Soybean [4]; [24]
  Soybean plant response rating: 90
Corn [5]; [25]
  Plant response rating, Corn: 30
Corn [5]; [26]
  Plant response rating, Corn: 90
oat, wild [6]; [25]
  Plant response rating, Oat, Wild: 30
oat, wild [6]; [26]
  Plant response rating, Oat, Wild: 50
ryegrass, Italian [7]; [23]
  Plant response rating, Ryegrass, Italian: 100
ryegrass, Italian [7]; [24]
  Ryegrass, Italian plant response rating: 90
Blackgrass [8]; [23]
  Plant response rating, Blackgrass: 80
Blackgrass [8]; [24]
  Blackgrass plant response rating: 50
galium; [25]
  Plant response rating, Galium: 100
galium; [26]
  Plant response rating, Galium: 100
pigweed, palmer [9]; [23]
  Plant response rating, Pigweed, Palmer: 100
pigweed, palmer [9]; [24]
  Pigweed, Palmer plant response rating: 100
Barnyardgrass [10]; [24]
  Barnyardgrass plant response rating: 50
Barnyardgrass [10]; [23]
  Plant response rating, Barnyardgrass: 100
Barnyardgrass [11]; [25]
  Plant response rating, Barnyardgrass: 40
Barnyardgrass [11]; [26]
  Plant response rating, Barnyardgrass: 50
Ragweed [12]; [25]
  Plant response rating, Ragweed: 50
Ragweed [12]; [26]
  Plant response rating, Ragweed: 90
Green foxtail [13]; [25]
  Plant response rating, Foxtail, Green: 50
Green foxtail [13]; [26]
  Plant response rating, Foxtail, Green: 80
Green foxtail [14]; [23]
  Plant response rating, Foxtail, Green: 100
Green foxtail [14]; [24]
  Foxtail, Green plant response rating: 100
Ragweed [15]; [23]
  Plant response rating, Ragweed: 60
Ragweed [15]; [24]
  Ragweed plant response rating: 70
Corn [16]; [23]
  Plant response rating, Corn: 30
Corn [16]; [24]
  Corn plant response rating: 30
Kochia [17]; [25]
  Plant response rating, Kochia: 80
Kochia [17]; [26]
  Plant response rating, Kochia: 90
Wheat [18]; [25]
  Plant response rating, Wheat: 30
Wheat [18]; [26]
  Plant response rating, Wheat: 30
Blackgrass [19]; [25]
  Plant response rating, Blackgrass: 70
Blackgrass [19]; [26]
  Plant response rating, Blackgrass: 90
pigweed, palmer [20]; [25]
  Plant response rating, Pigweed, Palmer: 90
pigweed, palmer [20]; [26]
  Plant response rating, Pigweed, Palmer: 100
horseweed; [25]
  Plant response rating, Horseweed: 20
horseweed; [26]
  Plant response rating, Horseweed: 50
ryegrass, Italian [21]; [25]
  Plant response rating, Ryegrass, Italian: 50
ryegrass, Italian [21]; [26]
  Plant response rating, Ryegrass, Italian: 90

## Cc1ccc(-n2cnc(C3(O)CCCC3)n2)cc1C(=O)N1C[C@H](C)Oc2c(Cl)cccc21 [Compound 193]
Wheat [1]; [27]
  Plant response rating, Wheat: 0
Wheat [1]; [24]
  Wheat plant response rating: 0
Kochia [2]; [27]
  Plant response rating, Kochia: 60
Kochia [2]; [24]
  Kochia plant response rating: 100
Soybean [3]; [25]
  Plant response rating, Soybean: 100
Soybean [3]; [28]
  Plant response rating, Soybean: 100
Soybean [4]; [27]
  Plant response rating, Soybean: 0
Soybean [4]; [24]
  Soybean plant response rating: 90
Corn [5]; [25]
  Plant response rating, Corn: 0
Corn [5]; [28]
  Plant response rating, Corn: 0
oat, wild [6]; [25]
  Plant response rating, Oat, Wild: 0
oat, wild [6]; [28]
  Plant response rating, Oat, Wild: 0
ryegrass, Italian [7]; [27]
  Plant response rating, Ryegrass, Italian: 60
ryegrass, Italian [7]; [24]
  Ryegrass, Italian plant response rating: 80
Blackgrass [8]; [27]
  Plant response rating, Blackgrass: 0
Blackgrass [8]; [24]
  Blackgrass plant response rating: 0
galium; [25]
  Plant response rating, Galium: 100
galium; [28]
  Plant response rating, Galium: 60
pigweed, palmer [9]; [27]
  Plant response rating, Pigweed, Palmer: 60
pigweed, palmer [9]; [24]
  Pigweed, Palmer plant response rating: 90
Barnyardgrass [10]; [27]
  Plant response rating, Barnyardgrass: 10
Barnyardgrass [10]; Test C, 0 to 100 scale (0 no effect, 100 complete control)
  Barnyardgrass plant response rating: 80
Barnyardgrass [11]; [25]
  Plant response rating, Barnyardgrass: 40
Barnyardgrass [11]; [28]
  Plant response rating, Barnyardgrass: 10
oat, wild [22]; Preemergence, 31 g ai/ha, 0 to 100 scale, 0 no effect, 100 complete control
  Plant response rating, Oat, Wild: 0
oat, wild [22]; Test C, preemergence, 125 g ai/ha, 0 to 100 scale (0 no effect, 100 complete control)
  Oat, Wild plant response rating: 20
Ragweed [12]; [25]
  Plant response rating, Ragweed: 60
Ragweed [12]; [28]
  Plant response rating, Ragweed: 50
Green foxtail [13]; [25]
  Plant response rating, Foxtail, Green: 80
Green foxtail [13]; [28]
  Plant response rating, Foxtail, Green: 30
Green foxtail [14]; [27]
  Plant response rating, Foxtail, Green: 0
Green foxtail [14]; [24]
  Foxtail, Green plant response rating: 0
Ragweed [15]; [27]
  Plant response rating, Ragweed: 0
Ragweed [15]; [24]
  Ragweed plant response rating: 60
Corn [16]; [27]
  Plant response rating, Corn: 0
Corn [16]; [24]
  Corn plant response rating: 0
Kochia [17]; [25]
  Plant response rating, Kochia: 80
Kochia [17]; [28]
  Plant response rating, Kochia: 20
Wheat [18]; [25]
  Plant response rating, Wheat: 10
Wheat [18]; [28]
  Plant response rating, Wheat: 10
Blackgrass [19]; [25]
  Plant response rating, Blackgrass: 60
Blackgrass [19]; [28]
  Plant response rating, Blackgrass: 0
pigweed, palmer [20]; [25]
  Plant response rating, Pigweed, Palmer: 70
pigweed, palmer [20]; [28]
  Plant response rating, Pigweed, Palmer: 20
horseweed; [25]
  Plant response rating, Horseweed: 0
horseweed; [28]
  Plant response rating, Horseweed: 0
ryegrass, Italian [21]; [25]
  Plant response rating, Ryegrass, Italian: 50
ryegrass, Italian [21]; [28]
  Plant response rating, Ryegrass, Italian: 20

— US20260262643A1, “HERBICIDAL BENZOXAZINES” (FMC CORPORATION, priority 2022, published 2026)
